The source of these data is article PMC12647591, “Evolution, structure and function of L-cysteine desulfidase, an enzyme involved in sulfur metabolism in the methanogenic archeon Methanococcus maripaludis” (Communications Biology, 2025).

Numbering of substitutions follows the chain as printed.

In data set [1] the target is T1, L-cysteine desulfidase CyuA (MmCyuA) (Methanococcus maripaludis, UniProt Q6LX84). Description: crystal structure, […] Å (from crystallization solution). The format is binding. Further details: gene MMP1468; [2Fe-2S]-MmCyuA, molecule A.
T1 sequence (Q6LX84 whole entry): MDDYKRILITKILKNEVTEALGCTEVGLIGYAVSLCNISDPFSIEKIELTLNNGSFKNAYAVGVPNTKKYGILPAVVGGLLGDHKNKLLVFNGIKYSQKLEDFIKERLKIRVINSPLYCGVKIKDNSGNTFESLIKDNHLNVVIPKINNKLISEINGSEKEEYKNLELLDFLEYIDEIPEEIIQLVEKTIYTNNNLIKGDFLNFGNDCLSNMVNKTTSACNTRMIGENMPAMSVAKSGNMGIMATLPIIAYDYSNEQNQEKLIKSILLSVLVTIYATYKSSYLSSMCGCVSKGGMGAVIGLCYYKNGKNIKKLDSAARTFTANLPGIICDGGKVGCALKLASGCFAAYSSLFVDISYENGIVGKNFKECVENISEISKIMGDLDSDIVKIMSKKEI
Data set [2] has as its target T2, L-cysteine desulfidase CyuA (MmCyuA) (Methanococcus maripaludis, UniProt Q6LX84, C289A).
T2 construct: gene MMP1468; holo-C289A-MmCyuA
T2 sequence (Q6LX84 1-396 C289A): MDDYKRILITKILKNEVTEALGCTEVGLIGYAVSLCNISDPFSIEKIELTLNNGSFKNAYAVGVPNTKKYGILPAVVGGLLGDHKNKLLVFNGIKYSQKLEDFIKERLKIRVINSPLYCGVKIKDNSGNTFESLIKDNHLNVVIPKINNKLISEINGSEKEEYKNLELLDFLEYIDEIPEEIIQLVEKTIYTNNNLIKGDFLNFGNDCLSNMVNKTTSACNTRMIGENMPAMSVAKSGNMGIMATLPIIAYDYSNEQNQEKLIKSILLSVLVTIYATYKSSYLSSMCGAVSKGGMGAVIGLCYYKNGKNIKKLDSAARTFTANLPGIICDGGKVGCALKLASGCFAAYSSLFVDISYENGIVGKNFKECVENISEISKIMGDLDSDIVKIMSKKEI
As to the kind of experiment: crystal structure, […] Å (from cryoprotectant). It counts as binding.

Data set [3] deals with T1, L-cysteine desulfidase CyuA (MmCyuA). As to the kind of experiment: pyruvate formation assay ([…],4-dinitrophenylhydrazine), Lineweaver-Burk and Dixon plots. The format is biochemical. Further details: gene MMP1468; holo-MmCyuA, recombinant, His-tag removed.
Data set [4] concerns the molecule itself. Description: SEC-MALS; apo-MmCyuA (cluster removed with dithionite and EDTA), 100 uL at 2 mg/mL on Superdex 200 10/300 GL Increase, 50 mM Tris-HCl pH 8.5, 300 mM NaCl, 5 mM DTT. Background: In gel filtration, larger molecules generally elute earlier.

Turning to `O=S(=O)(O)CCN1CCOCC1` [2-(N-morpholino)ethanesulfonic acid], in data set [1], the “crystal structure, 2.42 Å (from crystallization solution)” value is “sulfonate group of MES and the chloride ion were located at the same anion binding site”.
Turning to `OCC(O)CO` [GOL, glycerol], the “crystal structure, 3.18 Å (from cryoprotectant)” value in data set [2] is given as “One terminal hydroxyl of the glycerol molecule was coordinated to that Fe atom”.
For `N[C@@H](CO)C(=O)O` [L-serine], in data set [3], the Ki (in general, the equilibrium dissociation constant of an inhibitor or competing ligand from its target) stood at 15 ± 0.3 µM.

B1: L-cysteine desulfidase CyuA from Methanococcus maripaludis (enzyme, Methanococcus maripaludis strain S2)
chain: T2 sequence (Q6LX84 1-396 C289A) with A289C
notes: L-cysteine desulfidase CyuA (MmCyuA), product of the mmp1468 gene of Methanococcus maripaludis strain S2 (NC_005791.1); synthetic codon-optimised gene in pET15b between NdeI and BamHI; theoretical mass of the monomer 43.7 kDa; the synthetic mmp1468 gene appears to have been cloned whole; Holo form carries one [4Fe-4S] cluster per monomer (Cys287, Cys289, Cys329, Cys336); in crystal 2 a [2Fe-2S] …
B1: the stoichiometry N – broadly, the number of molecules, sites or subunits per partner or assembly – in data set [4] turned out to be 2.
